Reference: patent publication US20120171123A1, “USES AND COMPOSITIONS FOR TREATMENT OF RHEUMATOID ARTHRITIS” (priority 2006, published 2012)

How the values were obtained:
[1] = system: patients with early vs. long-standing RA; conditions: human, in vivo
Text: Study J was a 2-year randomized controlled trial in patients with early RA (disease duration<3 years). Participants in these clinical trials and in other phase Mb studies, were routinely evaluated for safety. Reports of serious adverse events (SAE) were tabulated using MedDRA coding by events per 100-patient-years (E/100PY). SAE rates were compared with respect to disease duration between patients with early (<3 yrs) and long-standing RA.

[2] = system: patients with long-standing RA; conditions: in vivo
[3] = system: patients with long-standing, moderate to severe RA; test: Study 5 (open-label extension, adalimumab 40 mg eow + MTX, into 7th year): long-term efficacy (ACR, DAS28, TJC, SJC, HAQ) and withdrawals; assay type: in vivo, human; conditions: Year 7
Procedure: (§1) After these trials, patients were eligible to enroll in two separate OLE studies: Study 4 and Study 5. Patients were evaluated for efficacy and safety every 3 months.
(§2) Efficacy outcomes were evaluated as observed data: DAS28; ACR 20/50/70; Tender Joint Count (TJC); Swollen Joint Count (SJC); and HAQ Disability Index. Baseline demographics and disease characteristics were similar in both Study 4 and Study 5 consistent with moderate to severe RA, as shown below in Table 64: […]

[4] = system: patients with RA who had failed prior treatment with infliximab; test: Adalimumab after failed infliximab: TJC28 and SJC28; assay type: in vivo, human; conditions: 16 wk
Text: Patients eligible to participate in the study included those with long-standing, moderate to severe RA who had terminated infliximab therapy because of lack or loss of efficacy and/or intolerance/side effects. […] Follow-up visits for safety and efficacy monitoring were scheduled at 2, 8, and 16 weeks. […] Efficacy parameters included TJC28 and SJC28; DAS28; ACR20, ACR50 Response; Moderate EULAR response; and HAQ. Subgroup analysis by reason for discontinuation included: • in case of discontinuation due to lack or loss of efficacy, patients were counted in the corresponding group regardless of additional cause of intolerance. • The subgroup “Discontinuation due to intolerance” was exclusive.

[5] = system: patients with moderate to severe rheumatoid arthritis; test: Study C: DAS28; assay type: in vivo, human
Procedure: The Canadian Adalimumab Clinical Trial (Study C) was an open-label, multi-center, Phase IIIb study conducted in Canada. […] Efficacy and safety were assessed at baseline, 4, 8, and 12 weeks. Efficacy assessments included tender joint count (TJC 0-28), swollen joint count (SJC 0-28), Disease Activity Score 28 (DAS28), Health Assessment Questionnaire (HAQ), and EULAR response. This was a preliminary analysis of 236 patients. The sample size for each outcome variable is based on the data available at the time of the analysis. The data from this preliminary analysis were compared with the Week 12 data from Study A (N=2008).

[6] = system: patients with long-standing RA; test: Study 4 (open-label extension, adalimumab 40 mg eow + MTX): ACR response and Major Clinical Response; assay type: in vivo, human
Procedure: The following study was performed to evaluate sustained remission in patients with RA treated with adalimumab and mtx. The study was an open-label extension study, where the last visit of the preceding study was used as the screening visit for Study 4. The study design for Study 4 is described in FIG. 12. The percentage of patients remaining on treatment over time from the first dose of adalimumab remained relatively constant. 846 patients enrolled over time.
ACR response rates and Major Clinical Response (MCR) remained constant through the fourth year of adalimumab treatment. Major Clinical Response (MCR) was defined as patients maintaining an ACR70 response for at least 6 continuous months over a 2-year period. […] At the end of the 4 year time period, 79% of patients had maintained an ACR20, 61% maintained an ACR50 response, and 38% maintained an ACR 70 response.
as §1, §2

[7] = system: patients with long-standing RA; test: Study 4: HAQ disability index; assay type: in vivo, human
Procedure: as §2

[8] = system: patients with long-standing RA who had inadequate responses to MTX; test: Study 1: serious adverse events
Procedure: Periodic ACR component evaluations were also performed throughout the study. Outcome measures included the following: Total Sharp Score (TSS), including joint erosions (JE) and joint space narrowing (JSN); ACR20, ACR50, and ACR70 response rates; and individual components of ACR responses criteria, including swollen joint count (SJC) and tender joint count (TJC). Efficacy and safety evaluations were conducted at regularly scheduled visits.

[9] = system: MTX-naïve adult patients with early RA (<3 years); test: Study J: HAQ DI; assay type: in vivo, human; conditions: for HAQ DI mean change from baseline: LOCF
Text: The Health Assessment Questionnaire Disability Index (HAQ DI) is a disease-specific tool that measures patient-reported physical function in 8 categories corresponding to normal activities in daily living. Fatigue is an important yet still often overlooked systemic symptom of RA. The Functional Assessment of Chronic Illness Therapy-Fatigue (FACIT-F) tool, measured by a 13-item, validated scale, assesses the impact of a disease and its therapy on fatigue.
Study J is described in detail in the above examples. The Health Assessment Questionnaire Disability Index (HAQ DI) and Functional Assessment of Chronic Illness Therapy-Fatigue (FACIT-F) were assessed at baseline, and following 12, 26, 42, 52, 76, and 104 weeks of therapy. Changes in scores were computed by subtracting the baseline from post-treatment score for each patient; mean changes were reported for each treatment group. The HAQ DI is assessed on a scale of 0-3, with higher numbers indicating greater disability. The minimum clinically important difference (MCID) is defined as changes ≧0.22 (Goldsmith C H, et al. J Rheumatol 1993; 20-561-5). The FACIT-F is assessed on a scale of 0-52, with higher scores indicating less fatigue. Changes of ≧4 are considered clinically meaningful (Cella D, et al. J Pain Symptom Manage 2002:24:547-61).

[10] = all reasons for infliximab withdrawal (N=37)
[11] = loss of response to infliximab (N=19)
[12] = no response to infliximab (N=13)
[13] = blinded-controlled and OLE periods

For “adalimumab: human anti-TNF mAb (HUMIRA, Abbott Laboratories), described in U.S. Pat. No. 6,090,382 as D2E7”, the Any serious infection [1] was 0.040 N/PY, the Serious infections [1] was 4.8 E/100PY and the “withdrawals for adverse events” value [2] was 15%. The “patients achieving clinical remission (DAS28<2.6)” value [3] was “Over 40%”, the “Change in SJC (0-28), mean change from baseline” value (shortened to “Change in SJC”) [4, 10] was −5.2 and the “Change in TJC (0-28), mean change from baseline” value (“Change in TJC” below) [4, 10] was −7.4. For the same compound, the “Change in SJC” value ([4]; infliximab intolerance (N=5)) was −7.8, the “Change in TJC” value ([4]; infliximab intolerance (N=5)) was −10.0 and the “Change in SJC” value [4, 11] was −6.1. The “Change in TJC” value [4, 11] was −8.2, the “Change in SJC” value [4, 12] was −2.8 and the “Change in TJC” value [4, 12] was −5.1. For the same compound, the “DAS28 (mean), change from baseline” value ([5]; Study C, 12 weeks, preliminary analysis) was −2.1 (116), the “mean decrease in DAS28 score” value ([5]; week 12) was −2.1 and the “patients achieving DAS28<2.6” value ([5]; week 12) was 10%. For the same compound, the “reduction in DAS28 score” value ([5]; week 12) was 32%, the “mean DAS28” value ([5]; week 12 (baseline 6.5)) was 4.4 and the “patients maintaining ACR20” value ([6]; end of 4 years) was 79%. The “patients maintaining ACR50” value ([6]; end of 4 years) was 61%, the “patients maintaining ACR70” value ([6]; end of 4 years) was 38% and the “patients achieving Major Clinical Response (ACR70 ≧6 continuous months)” value ([6]; patients with at least 3 years of exposure) was 31%. For the same compound, the “HAQ, % change of mean clinical improvement from baseline” value (from here on “HAQ, % change”) ([7]; 6 months) was 45%, the “HAQ, % change” value ([7]; 12 months) was 43% and the “HAQ, % change” value ([7]; 24 months) was 47%. For the same compound, the “HAQ, % change” value ([7]; 36 months) was 47%, the “HAQ, % change” value ([7]; 48 months) was 50% and the Demyelinating disease [8, 13] was 0.2 events/100-PY. It also gave a Histoplamosis [8, 13] of 0.2 events/100-PY, a Tuberculosis [8, 13] of 0.2 events/100-PY and a Demyelinating disease ([8]; blinded-controlled period) of 0.3 events/100-PY. It also gave a Histoplamosis ([8]; blinded-controlled period) of 0.3 events/100-PY, a Tuberculosis ([8]; blinded-controlled period) of 0.3 events/100-PY and a Lymphoma ([8]; in vivo) of 0.3 events/100-PY. The Urinary tract infections ([8]; in vivo) was 0.3 events/100-PY.
For `CN(Cc1cnc2nc(N)nc(N)c2n1)c1ccc(C(=O)N[C@@H](CCC(=O)O)C(=O)O)cc1` [mtx alone, methotrexate], the “HAQ DI mean score” value ([9]; Baseline) was 1.48, the “HAQ DI mean change from baseline” value ([9]; ΔWeek 12) was −0.53 and the “HAQ DI mean change from baseline” value ([9]; ΔWeek 26) was −0.67. For the same compound, the “HAQ DI mean change from baseline” value ([9]; ΔWeek 42) was −0.68, the “HAQ DI mean change from baseline” value ([9]; ΔWeek 52) was −0.69 and the “HAQ DI mean change from baseline” value ([9]; ΔWeek 76) was −0.68. For the same compound, the “HAQ DI mean change from baseline” value ([9]; ΔWeek 104) was −0.68.
